Results on 1 compound are retold here after publication PMC9144829, “Histone Deacetylase Inhibitory Activity and Antiproliferative Potential of New [6]-Shogaol Derivatives” (Molecules, 2022).

Test [1] has as its system human cervical cancer (HeLa) cells. Briefly: MTT assay, HeLa cells. The test is classed as cell-based. The settings on record: for IC50: Homo sapiens, read-out: IC50 Values (Mean ± SD; n = 3), HeLa cells. The procedure:
(§1) The MTT reduction assay was performed with non-cancer (Vero), human cervical cancer (HeLa), human colon cancer (HCT116), human breast adenocarcinoma cancer (MCF-7), and cholangiocarcinoma (H-69 […], KKU-100 and KKU-M213B) cell lines according to the previously described method. Briefly, cells were seeded in 96-well plates. The next day, cells were exposed to the selected compounds at various concentrations and incubated for 24, 48 and 72 h. After incubation, the culture medium was exchanged with 110 µL of MTT (0.5 mg/mL in PBS medium) and further incubated for 2 h. The amount of MTT formazan product was determined after dissolving in DMSO by measuring its absorbance with a microplate reader (Bio-Rad Laboratories, Hercules, CA, USA) at a test wavelength of 550 nm and a reference wavelength of 655 nm. The cell viability was expressed as a percentage of the viable cells of control culture conditions, and the IC50 values of each group were calculated.
Background: Tetrazolium assays rely on reduction of a dye to a coloured formazan, in cell work by metabolically active cells.

In test [2] the test system is human breast adenocarcinoma cancer (MCF-7) cells. The test is described as follows: MTT assay, MCF-7 cells. The test is classed as cell-based. The conditions noted are these: Homo sapiens, MCF7, read-out: IC50 Values (Mean ± SD; n = 3). The method, then: as §1
Test [3] concerns HDAC enzymes (HeLa nuclear extract, mixed-HDAC isoforms). Briefly: Fluor-de-Lys HDAC activity assay kit, HeLa nuclear extract as source of HDAC enzymes. The conditions noted are these: compounds at 100 µM. It counts as biochemical, human. The method, then:
The in vitro HDAC inhibitions of the obtained compounds were carried out with the assay kit containing mixed-HDAC isoforms. […] Therefore, the results were not fully related. However, compounds with good binding affinities should have the potential to be specific HDAC inhibitors for each isoform.
The semi-synthetic derivatives were evaluated for their ability to inhibit HDAC enzymes. Inhibition of HDAC activity in vitro was assessed using the Fluor-de-Lys HDAC activity assay kit (Biomol, Enzo Life Sciences International, Inc., Farmingdale, NY, USA). The HeLa nuclear extract provided with the kit was used as a source of HDAC enzymes for the in vitro study. TSA was used as the positive control. The HeLa nuclear extract, substrate, buffer and inhibitors were incubated. Deacetylation of the substrate was performed next by adding a developer to generate a fluorophore. The spectra Max Gemini XPS microplate spectrofluorometer (Molecular Devices, San Jose, CA, USA) was used to measure fluorescence signal with excitation at 360 nm and emission at 460 nm. A decrease in fluorescence signal indicated an inhibition of HDAC activity. Trichostatin A (TSA) was used as a positive control. All experiments were carried out in triplicate.

A further test concerns Vero cells. The test is described as follows: MTT assay, non-cancer Vero cells. The conditions noted are these: Chlorocebus sabaeus, read-out: IC50 Values (Mean ± SD; n = 3). The test is classed as cell-based. The procedure: as §1
Test [4] deals with human colon cancer (HCT116) cells. Briefly: MTT assay, HCT116 cells. The test is classed as cell-based. The conditions noted are these: Homo sapiens, HCT-116, read-out: IC50 Values (Mean ± SD; n = 3). The procedure: as §1
Test [5] deals with cholangiocarcinoma KKU-M213B cells. Briefly: MTT assay, KKU-M213B cells. The test is classed as cell-based, human. The conditions noted are these: Homo sapiens, read-out: IC50 Values (Mean ± SD; n = 3). The method, then: as §1
The target of a further test is histone deacetylase. The settings on record: Figure 1; read-out: IC50 (known histone deacetylase inhibitors); cited from earlier work.
The test system of test [6] is cholangiocarcinoma KKU-100 cells. The test is described as follows: MTT assay, KKU-100 cells. It counts as cell-based, human. The conditions noted are these: Homo sapiens, KKU100, read-out: IC50 Values (Mean ± SD; n = 3). The method, then:
as §1

For a further test, the system named is H-69 cells. The test is described as follows: MTT assay, H-69 cells. It counts as cell-based. The settings on record: Homo sapiens, NCI-H69, read-out: IC50 Values (Mean ± SD; n = 3). The method, then: as §1

Each structure is given as a SMILES string. Read-outs that look alike come from different tables or passages of the source.

As usually defined, the IC50 is the concentration needed to halve the response being measured. On to `CCCCC/C=C/C(=O)CCc1ccc(O)c(OC)c1` [Compound 4, [6]-shogaol], for which the “selectivity towards HeLa cells than non-cancer cells” value in test [1] (HeLa versus non-cancer cells) is given as 3 fold. Also, the IC50 is 16.9 ± 0.8 µM in [1] (24 h); 9.26 ± 0.46 µM in [1] (48 h); 8.1 ± 0.29 µM in test [1] (72 h); 24.8 ± 0.66 µM in test [2] (24 h); 16.54 ± 0.15 µM in [2] (48 h); 13.39 ± 0.07 µM in test [2] (72 h). For the same compound, the IC50 was found to be 37.6 ± 0.94 µM with Vero cells (24 h); 36 ± 0.95 µM with Vero cells (48 h); 23.3 ± 0.24 µM with Vero cells (72 h); 17.3 ± 0.57 µM in test [4] (24 h); 12.4 ± 0.15 µM in [4] (48 h); 12.3 ± 0.13 µM in test [4] (72 h). For the same compound, the IC50 in test [5] (24 h) is 17.95 ± 0.05 µM; in test [5] (48 h), 12.9 ± 0.47 µM; in [5] (72 h), 9.91 ± 0.17 µM; on histone deacetylase, 50 µM; in [6] (24 h), 27.64 ± 0.26 µM; in [6] (48 h), 18.9 ± 0.48 µM. The IC50 in test [6] (72 h) was determined as 17.04 ± 0.04 µM; in the test with H-69 cells (24 h), 38.4 ± 0.84 µM; in the test on H-69 cells (48 h), 32 ± 0.55 µM; in the test with H-69 cells (72 h) it was 24.78 ± 0.24 µM. For the same compound, the “%HDAC Inhibition” value in test [3] was 86%.
